Where two headings read alike, the source gives them in different places. Marks after values point to notes of the source that are not given here.
Experiments:
ovarian polyamines = assay: Ovarian polyamine quantification by ion chromatography; type: in vivo, mouse; details: older mice, 1% putrescine in drinking water for several days
Method: A Dionex ion chromatography system was used to analyze polyamines during ovulation. This system employs an online conductivity detector coupled with an anion suppressor such that only cations are detected. Ovaries were extracted in 5% trichloric acid (TCA) followed by extraction with diethyl ether. The TCA extracts were diluted in water before being applied to the ion chromatography system.
(§1) Polyamines from ovarian samples were determined by ion chromatography (IC) system (Rey and Pohl, 2003. J. Chromatography A 997:199-206). Ovaries were collected immediately after animal sacrifice and stored at −80° C. until use. The samples were thawed and minced, and then 5% trichloroacetic acid (TCA) was added (20 μl/mg). The samples were ultra-sonicated 30 seconds thrice. After centrifugation, the supernatants were extracted twice with diethyl ether. The mouse blood was collected in a tube containing 1 iu/ml heparin (LEO). After centrifugation, the supernatant (plasma) was collected and 10% TCA was added by 1:1 in volume. These plasma samples were extracted twice with diethyl ether, as noted above. The extracts were diluted 10 times in water for polyamine analysis on Dionex Ion ICS-2100 system (Thermo scientific, Dionex, Sunnyvale, Calif., USA) according to the manufacture instructions, using the support software of PeakNet 6.40 SP5 Build 778.

9-month-old CF1 mice = tested on: 9-month-old CF1 mice
Description: Four (4) days later, the female mice are caged individually with fertile males (1:1) overnight. The females were examined in the morning for the presence of a vaginal plug (indicative of mating) and “plugged” females are considered E0 and separated from the males. Mice without a plug were continued mating until a plug was seen, or for up to a total of 4 days (average length of a mouse estrus cycle). Mice were sacrificed on E12 (“unplugged” mice were also sacrificed, taking the next morning following the 4-day-mating as E0) and their uterine horns inspected for normal embryos and dead embryos (resorption).

[1] = tested on: oocytes of very old (16 months) odc-/+ mice
Description: Table 12 Summary of two independent experiments. N: total numbers of oocytes in two experiments; GV: oocytes remained in prophase I; MI, no germinal vesicle and no polar body seen (used for spindle examination); PB1, oocytes with first polar body; Fragmented: abnormal cleavage likely due to parthenogenetic activation. * one MI oocyte was lost during handling.

[2] = tested on: oocytes of C57BL/6 (8 months) mice
Method: GV oocytes isolated from the ovaries of control mice were incubated for 17 h in αMEM. […] Metaphase II eggs following IVM were karyotyped and data expressed. Karyotype analyses were carried out by dual stains (anti-CREST and Sytox green) of metaphase II chromosomes. N: number of interpretable metaphase II karyotypes containing at least 18 dyads or the equivalent (e.g. 17 dyads plus 2 separated sister chromatids). Hypoploid: 18-19 dyads. Euploid: 20 dyads. Hyperploid: 21. PSSC: any karyotypes containing separated sister chromatid(s), with the total of at least 18 dyads or the equivalents. Aneuploid: 2×hyperploid+PSSC. Detailed breakdowns are in Table 14.
Mice were euthanized by cervical dislocation 44-46 h after they were primed with 5 IU equine chorionic gonadotropin (eCG) intraperitonally. […] Ovaries were immediately removed and minced in M2 medium (Sigma; unless otherwise indicated, other chemicals used in this study were also purchased from Sigma) to release oocytes. Oocytes with a clear germinal vesicle (GV) were used for in vitro maturation (IVM) for 17 hours in IVM medium (αMEM medium supplemented with 5% fetal bovine serum and 1 mM L-glutamine) overlaid with mineral oil.
Chromosome spread was carried out according to Hodges and Hunt (Hodges & Hunt, 2002) with minor modifications. In brief, oocytes or 2-cell embryos were collected in M2 medium. The zona pellucida was removed by treatment with 0.5 units/μl pronase at 37° C. for 20 sec. Zona-free oocytes/embryos were rinsed in M2 medium to detach polar bodies. The oocytes/embryos were individually plated onto glass slides (1-10 oocytes/embryos per slide) predipped in the fixative (prepared weekly and stored at 4° C.) containing 1% paraformaldehyde (w/v), 0.15% Triton X-100 (v/v), and 3 mM dithiothreitol, pH 9.2. Slides were kept overnight in moist boxes at room temperature. The slides were then rinsed in 0.5% Kodak Flo (Eastman Kodak Company, Rochester, N.Y.) solution and air-dried. The slides were incubated in 1:200 diluted human anti-centromere serum (Immunovision, Springdale, Ark.) in PBS containing 1% BSA overnight at 4° C., in 1:300 diluted secondary antibody (goat anti-human) conjugated with rhodamine (Jackson ImmunoResearch) in PBS-BSA for 1 h at room temperature, and 0.1% SYTOX green (Invitrogen, Eugene, Oreg.) in PBS for 30 min at room temperature. To avoid bias, the slides were coded by a colleague before being examined by an investigator using epifluorescence microscopy and photographed. Decoding was done after karyotypes were tabulated.

[3] = 1 mM putrescine in drinking water, stated by Penderville H. et al; cited from earlier work
in vivo = details: mouse, plasma
Method: as §1

[4] = number of MII eggs, 1% putrescine drinking water one week, IVM with 5 mM putrescine

NCCCCN [Putrescine, putrescine]
levels of ovarian spermidine and spermine (ovarian polyamines): remained unchanged
levels of ovarian putrescine compared to control mice (ovarian polyamines; before or 5 h after hCG): appreciably higher
Total implants (9-month-old CF1 mice; E12): 300
Total normal fetuses (9-month-old CF1 mice; E12): 282
Total resorption sites (9-month-old CF1 mice; E12): 18
Total normal fetuses/total animals (9-month-old CF1 mice; E12, as fraction): 282/29
Total normal fetuses/total pregnancies (9-month-old CF1 mice; E12, as fraction): 282/24
Total resorption sites/total animals (9-month-old CF1 mice; E12, as fraction): 18/29
Total resorption sites/total implants (9-month-old CF1 mice; E12, as fraction): 18/300
Total resorption sites/total pregnancies (9-month-old CF1 mice; E12, as fraction): 18/24
Total normal fetuses/total animals (9-month-old CF1 mice; E12, quotient): (9.27)
Total normal fetuses/total pregnancies (9-month-old CF1 mice; E12, quotient): (11.75)
Total resorption sites/total animals (9-month-old CF1 mice; E12, quotient): (0.62)
Total pregnancy (9-month-old CF1 mice; number of mice, 1% putrescine in drinking water): 24
Plug observed (9-month-old CF1 mice; number of mice, 1% putrescine in drinking water 5-8 days up to plug): 25
Plug pregnancy (9-month-old CF1 mice; percent of plugged mice): (92.00%)
Unplug pregnancy (9-month-old CF1 mice; percent of unplugged mice): (25.00%)
Plug pregnancy (9-month-old CF1 mice; pregnant/plugged mice): 23/25
Unplug pregnancy (9-month-old CF1 mice; pregnant/unplugged mice): 1/4
Normal MI spindle ([1]; normal/examined MI oocytes): 19/20*
dead ([1]; number of oocytes): 1
GV ([1]; number of oocytes remained in prophase I, two experiments): 6
fragmented ([1]; number of oocytes with abnormal cleavage): 0
PB1 ([1]; number of oocytes with first polar body): 2
MI ([1]; number of oocytes, no germinal vesicle and no polar body): 21
% Hyperploidy ([2]; 1% putrescine drinking water one week, IVM with 5 mM putrescine): 0%
% Aneuploidy ([2]; Aneuploid: 2×hyperploid+PSSC, 1% putrescine drinking water one week, IVM with 5 mM putrescine): 5.3%
Euploid 20 [2, 4]: 83
Hyperploid 21 [2, 4]: 0
Hyperploid 22 [2, 4]: 0
Hypoploid 19 [2, 4]: 21
PSSC [2, 4]: 6
Hypoploid 18 ([2]; number of MII eggs, 1% putrescine drinking water one week, then 17 h IVM with 5 mM putrescine): 4
Hyperploid ([2]; number of eggs per experiment date (breakdown of Table 13)): 0
number of fully grown GV oocytes in the ovaries ([2]; putrescine in drinking water, n=13): 25.3 /mouse
fetal toxicity [3]: fetal toxicity was found
concentration at 20 min (in vivo; sc): 42 µM
concentration at 40 min (in vivo; subcutaneous): 16 µM
concentration at 60 min (in vivo; subcutaneous): 8 µM
